# Test system: mutant Huntington (HTT) protein
# Test: HTT Mutant HTRF iPSC assay (mHTT protein lowering)
# Assay type: cell-based
# Settings: human iPSC derived from a HTT patient with a poly-Q49 mutation
row,Compound,IC50 [µM]
1,"Cc1cn2nc(-c3cc(F)c4[nH]c(C5CC6(CCNCC6)C5)nc4c3)cc(C)c2n1 [Compound 421, 6-(7-fluoro-2-(7-azaspiro[3.5]nonan-2-yl)-1H-benzo[d]imidazol-5-yl)-2,8-dimethylimidazo[1,2-b]pyridazine]",0.1 to 1
2,"CCc1cc(-c2cc(F)c3nn(C4CCN(C)CC4)cc3c2)nn2cc(C)nc12 [Compound 357, 8-ethyl-6-(7-fluoro-2-(1-methylpiperidin-4-yl)-2H-indazol-5-yl)-2-methylimidazo[1,2-b]pyridazine]",0.1 to 1
3,"CCc1cc(-c2cc(F)c3nn(C4CCNCC4)nc3c2)nn2cc(C)nc12 [Compound 389, 6-(8-ethyl-2-methylimidazo[1,2-b]pyridazin-6-yl)-4-fluoro-2-(piperidin-4-yl)-2H-benzo[d][1,2,3]triazole]",0.1 to 1
4,"CCN1CCC(c2cn3cc(-c4ccc5nc(C)cn5c4)cc(F)c3n2)CC1 [Compound 8, 2-(1-ethylpiperidin-4-yl)-8-fluoro-2′-methyl-6,6′-biimidazo[1,2-a]pyridine]",1 to 9
5,"Cc1cn2cc(-c3cc(F)c4[nH]c(C5CCNCC5)nc4c3)cc(F)c2n1 [Compound 143, 7-fluoro-5-(8-fluoro-2-methylimidazo[1,2-a]pyridin-6-yl)-2-(piperidin-4-yl)-1H-benzo[d]imidazole]",1 to 9
6,"COc1cc(-c2cc(F)c3nn(C)cc3c2)cc2cn(C3CCNCC3)nc12 [Compound 543, 7-fluoro-7′-methoxy-2-methyl-2′-(piperidin-4-yl)-2H,2′H-5,5′-biindazole]",1 to 9
7,"Cc1cn2cc(-c3cc(F)c4nc(C5CCNCC5)nn4c3)cc(F)c2n1 [Compound 151, 8-fluoro-6-(8-fluoro-2-methylimidazo[1,2-a]pyridin-6-yl)-2-(piperidin-4-yl)-[1,2,4]triazolo[1,5-a]pyridine]",1 to 9
8,"Cc1cn2nc(-c3cc(F)c4nc(C5CCNC(C)C5)cn4c3)cc(C)c2n1 (stereo not drawn) [Compound 60, 6-(8-fluoro-2-(2-methylpiperidin-4-yl)imidazo[1,2-a]pyridin-6-yl)-2,8-dimethylimidazo[1,2-b]pyridazine]",< 0.1
9,"Cc1cn2nc(-c3cc(F)c4nc(NC(=O)C5CCCN(C)C5)nn4c3)cc(C)c2n1 (single isomer, unassigned) [Compound 325]",0.1 to 1
10,"Cc1cn2nc(-c3cc(OC(F)(F)F)c4nc(C5CCNCC5)cn4c3)cc(C)c2n1 [Compound 549, 2,8-dimethyl-6-(2-(piperidin-4-yl)-8-(trifluoromethoxy)imidazo[1,2-a]pyridin-6-yl)imidazo[1,2-b]pyridazine]",0.1 to 1
11,"Cc1cn2nc(-c3cc(F)c4nc(C5CCC6(CCN(C)C6)C5)cn4c3)cc(C)c2n1 (stereo not drawn) [Compound 232, 6-(8-fluoro-2-(2-methyl-2-azaspiro[4.4]nonan-7-yl)imidazo[1,2-a]pyridin-6-yl)-2,8-dimethylimidazo[1,2-b]pyridazine]",< 0.1
12,"Cc1cn2cc(-c3cc(F)c4[nH]c(C5CCNCC5)nc4c3)cc2c(C)n1 [Compound 145, 5-(1,3-dimethylpyrrolo[1,2-a]pyrazin-7-yl)-7-fluoro-2-(piperidin-4-yl)-1H-benzo[d]imidazole]",1 to 9
13,"Cc1cn2nc(-c3cc(F)c4nc(NC(=O)C5CN(C6CC6)C5(C)C)cn4c3)cc(C)c2n1 (stereo not drawn) [Compound 285, 1-cyclopropyl-N-(6-(2,8-dimethylimidazo[1,2-b]pyridazin-6-yl)-8-fluoroimidazo[1,2-a]pyridin-2-yl)-2,2-dimethylazetidine-3-carboxamide]",0.1 to 1
14,"Cc1cn2nc(-c3cc(F)c4nc(N5CC6CN(C)CC6C5)oc4c3)cc(C)c2n1 (stereo not drawn) [Compound 466, 6-(2,8-dimethylimidazo[1,2-b]pyridazin-6-yl)-4-fluoro-2-(5-methylhexahydropyrrolo [3,4-c]pyrrol-2(1H)-yl)benzo[d]oxazole]",0.1 to 1
15,"Cc1cc2nc(-c3cc(F)c4nc([C@H]5[C@@H]6CN(C)C[C@@H]65)cn4c3)cc(C)n2n1 [Compound 223, 5-(8-fluoro-2-((1R,5S,6r)-3-methyl-3-azabicyclo[3.1.0]hexan-6-yl)imidazo[1,2-a]pyridin-6-yl)-2,7-dimethylpyrazolo[1,5-a]pyrimidine]",0.1 to 1
16,"Cc1cn2nc(-c3cc(F)c4nc(C5CCNC6(CC6)C5)nn4c3)cc(C)c2n1 (stereo not drawn) [Compound 454, 6-(2,8-dimethylimidazo[1,2-b]pyridazin-6-yl)-8-fluoro-2-(4-azaspiro[2.5]octan-7-yl)-[1,2,4]triazolo[1,5-a]pyridine]",0.1 to 1
17,"CN1CC2(c3cn4cc(-c5cc(F)c6nn(C)cc6c5)cc(F)c4n3)CC1C2 [Compound 66, 7-fluoro-5-[8-fluoro-2-(2-methyl-2-azabicyclo[2.1.1]hexan-4-yl)imidazo[1,2-a]pyridin-6-yl]-2-methyl-indazole]",1 to 9
18,"Cn1cc2cc(-c3cc(F)c4nc(C5CCNCC5)cn4c3)ccc2n1 [Compound 11, 5-(8-fluoro-2-(piperidin-4-yl)imidazo[1,2-a]pyridin-6-yl)-2-methyl-2H-indazole]",0.1 to 1

row,Compound,IC50 [µM]
1,"COc1cc(-c2cc(F)c3nc(C4CCNCC4)cn3c2)cc2cn(C)nc12 [Compound 83, 5-(8-fluoro-2-(piperidin-4-yl)imidazo[1,2-a]pyridin-6-yl)-7-methoxy-2-methyl-2H-indazole]",0.1 to 1
2,"Cc1cn2nc(-c3cc(F)c4nc(NC(=O)C5CN(C6CC6)C5)cn4c3)cc(C)c2n1 [Compound 265, 1-cyclopropyl-N-(6-(2,8-dimethylimidazo[1,2-b]pyridazin-6-yl)-8-fluoroimidazo[1,2-a]pyridin-2-yl)azetidine-3-carboxamide]",< 0.1
3,Cc1cn2nc(-c3cc(F)c4nc(C56CC(C7CNC7)(C5)C6)cn4c3)cc(C)c2n1 [Compound 184],0.1 to 1
4,"Cc1cc(-c2cc(F)c3nc([C@H]4[C@@H]5CN(C)C[C@@H]54)cn3c2)nn2cc(C(F)F)nc12 [Compound 228, 2-(difluoromethyl)-6-(8-fluoro-2-((1R,5S,6r)-3-methyl-3-azabicyclo[3.1.0]hexan-6-yl)imidazo[1,2-a]pyridin-6-yl)-8-methylimidazo[1,2-b]pyridazine]",0.1 to 1
5,"Cc1cn2nc(-c3cc(F)c4nc([C@H]5[C@@H]6CN(C)C[C@@H]65)nn4c3)cc(C)c2n1 [Compound 453, 6-(2,8-dimethylimidazo[1,2-b]pyridazin-6-yl)-8-fluoro-2-[(1S,5R)-3-methyl-3-azabicyclo[3.1.0]hexan-6-yl]-[1,2,4]triazolo[1,5-a]pyridine]",0.1 to 1
6,"Cc1cn2nc(-c3cc(F)c4nc(N5CCC(CN6CCCC6)C5)oc4c3)cc(C)c2n1 (stereo not drawn) [Compound 483, 6-(2,8-dimethylimidazo[1,2-b]pyridazin-6-yl)-4-fluoro-2-(3-(pyrrolidin-1-ylmethyl)pyrrolidin-1-yl)benzo[d]oxazole]",0.1 to 1
7,"Fc1cc(-c2ccc3nn(C(F)F)cc3c2)cn2cc(C3CCNCC3)nc12 [Compound 36, 2-(difluoromethyl)-5-(8-fluoro-2-(piperidin-4-yl)imidazo[1,2-a]pyridin-6-yl)-2H-indazole]",1 to 9
8,"Cc1cn2nc(-c3cc(F)c4nc(NC(=O)CC5CCCCN5)cn4c3)cc(C)c2n1 (stereo not drawn) [Compound 274, N-(6-(2,8-dimethylimidazo[1,2-b]pyridazin-6-yl)-8-fluoroimidazo[1,2-a]pyridin-2-yl)-2-(piperidin-2-yl)acetamide]",< 0.1
9,"Cc1cc(-c2cc(F)c3nc(C4CCN(C5CC5)CC4)cn3c2)nc2cn(C)nc12 [Compound 171, 5-(2-(1-cyclopropylpiperidin-4-yl)-8-fluoroimidazo[1,2-a]pyridin-6-yl)-2,7-dimethyl-2H-pyrazolo[4,3-b]pyridine]",< 0.1
10,"COc1cc(-c2cc3c(C)nc(C)cn3n2)cn2cc([C@H]3[C@@H]4CN(C)C[C@@H]43)nc12 [Compound 542, 2-(8-methoxy-2-((1R,5S,6r)-3-methyl-3-azabicyclo[3.1.0]hexan-6-yl)imidazo[1,2-a]pyridin-6-yl)-4,6-dimethylpyrazolo[1,5-a]pyrazine]",0.1 to 1
11,"Fc1cc(-c2cc(F)c3nc(C4CCNCC4)cn3c2)cc2[nH]ncc12 [Compound 52, 4-fluoro-6-(8-fluoro-2-(piperidin-4-yl)imidazo[1,2-a]pyridin-6-yl)-1H-indazole]",1 to 9
12,"Cc1cn2nc(-c3cc(F)c4nc([C@H]5C[C@]6(CN[C@@H](C)C6)C5)cn4c3)cc(C)c2n1 (single isomer, unassigned) [Compound 177, 6-(8-fluoro-2-((2S*,4r,7S*)-7-methyl-6-azaspiro[3.4]octan-2-yl)imidazo[1,2-a]pyridin-6-yl)-2,8-dimethylimidazo[1,2-b]pyridazine]",< 0.1
13,"Cc1cn2nc(-c3cc(F)c4nc(N5CCC(N(C)C)CC5)oc4c3)cc(C)c2n1 [Compound 475, 1-(6-(2,8-dimethylimidazo[1,2-b]pyridazin-6-yl)-4-fluorobenzo[d]oxazol-2-yl)-N,N-dimethylpiperidin-4-amine]",< 0.1
14,"Cc1cn2nc(-c3cn4cc(C5CCCNC5)cc(F)c4n3)cc(C)c2n1 (stereo not drawn) [Compound 134, 6-(8-fluoro-6-(piperidin-3-yl)imidazo[1,2-a]pyridin-2-yl)-2,8-dimethylimidazo[1,2-b]pyridazine]",1 to 9
15,"Cc1cc(-c2cc(F)c3nc(C4CCN(C)CC4)cn3c2)cc2cn(C)nc12 [Compound 6, 5-(8-fluoro-2-(1-methylpiperidin-4-yl)imidazo[1,2-a]pyridin-6-yl)-2,7-dimethyl-2H-indazole]",0.1 to 1
16,"[2H]C1(N2CCC(c3cn4cc(-c5cc(C)c6nc(C)cn6n5)cc(F)c4n3)CC2)CC1 [Compound 207, 6-(2-(1-(cyclopropyl-1-d)piperidin-4-yl)-8-fluoroimidazo[1,2-a]pyridin-6-yl)-2,8-dimethylimidazo[1,2-b]pyridazine]",< 0.1
17,"CCN1CCC(N(C)c2nc3c(F)cc(-c4cc(C)c5nc(C)cn5n4)cc3o2)CC1 [Compound 502, 6-(2,8-dimethylimidazo[1,2-b]pyridazin-6-yl)-N-(1-ethylpiperidin-4-yl)-4-fluoro-N-methylbenzo[d]oxazol-2-amine]",< 0.1
18,"COc1cc(-c2cc(F)c3nc(C)cn3c2)cc2nn(C3CCNCC3)nc12 [Compound 548, 6-(8-fluoro-2-methyl-imidazo[1,2-a]pyridin-6-yl)-4-methoxy-2-(4-piperidyl)benzotriazole]",1 to 9
